{
  "source": "patent US20130189382A1",
  "about": "“Use of fucoxanthin in the preparation of product for improving memory and having neuroprotective effect associated with neurodegenerative disorder” (Beijing Gingko Group Biological Technology Co., Ltd., priority 2010, published 2013)",
  "key": {"[1]": {"tested_on": "rat brain cortical neurons induced by Aβ25-35", "experiment": "SOD activity in culture medium of neurons damaged by Aβ25-35", "type": "cell-based", "excerpt": "Aβ25-35 and MTT, purchased from Sigma Company; T-AOC assay kit, MDA assay kit, GSH-PX assay kit and SOD assay kit, purchased from Nanjing Jiancheng Bioengineering Institute; and cell apoptosis fluorescent Hoechst33342/PI double staining reagent kit purchased from Nanjing KeyGEN Biotech Co., Ltd. […] Other detection indexes: […] Three experiments of different samples were repeated to detect each index of this experiment (except the Hoechst/PI double staining experiment and the experiment of cell morphological observation), and all results are obtained via the results of three experiments by using statistical analysis. The SOD activity can reflect ability of organisms to remove ROS indirectly. The influence of the reference substance A (A) and the coarse extracts thereof FX-01 powder (Fx-powder) and Fx-01 oil (Fx-oil) on the SOD activity in the culture medium of the rat brain cortical neuron model induced by Aβ25-35 is detected and the result is as shown in Table 2. […] The SOD activity is improved with the increase of drug concentrations."}, "[2]": {"tested_on": "rat brain cortical neurons induced by Aβ25-35", "experiment": "MDA content in culture medium of neurons damaged by Aβ25-35", "type": "cell-based", "excerpt": "Aβ25-35 and MTT, purchased from Sigma Company; T-AOC assay kit, MDA assay kit, GSH-PX assay kit and SOD assay kit, purchased from Nanjing Jiancheng Bioengineering Institute; and cell apoptosis fluorescent Hoechst33342/PI double staining reagent kit purchased from Nanjing KeyGEN Biotech Co., Ltd. […] Other detection indexes: […] Three experiments of different samples were repeated to detect each index of this experiment (except the Hoechst/PI double staining experiment and the experiment of cell morphological observation), and all results are obtained via the results of three experiments by using statistical analysis. ROS is generated by organisms through the enzyme system and the non-enzyme system and the ROS is able to attack polyunsaturated fatty acids in biological membranes, and initiate lipid peroxidation to form lipid peroxides, such as MDA. Therefore, the amount of MDA can reflect the degree of lipid peroxidation in organisms, thereby indirectly reflecting the damage degree of cells attacked by free radicals. […] The Fx-powder can reduce the MDA content in the culture medium of the damaged neurons remarkably and is dose-dependent, and the protective effect of the Fx-powder increases with the increase of drug concentrations. The Fx-oil also has such effect to protect neurons from oxidative damage and is not evidently dose-dependent. The reference substance A presents certain protective effect at a low dose, but the effect is seemingly reversed at medium and high doses, along with an increase in the MDA content. However, there is no statistical difference compared with the model group."}, "[3]": {"tested_on": "rat brain cortical neurons induced by Aβ25-35", "experiment": "Neuron morphological detection by Hoechst/PI double staining", "type": "cell-based", "conditions": "compared with model group, FIG. 1", "experimental": "The anti-AD activity of fucoxanthin is evaluated by detecting indexes including cell survival rate (MTT), cytomorphology, SOD, GSH-PX, T-AOC and MDA etc. SOD plays an important role in the balance between oxidation and anti-oxidization of organisms. The enzyme is able to remove superoxide anion free radicals and protect cells from damage, and the activity of the enzyme indirectly reflects the ability of organisms to remove ROS. GSH-PX, which is an important enzyme for catalyzing the decomposition of hydrogen peroxide in the body, is able to protect the integrity of cellular membrane structures and functions. The T-AOC can be measured to evaluate the antioxidant capacity of the total anti-oxidant substances in a system. The quantity of MDA reflects the degree of lipid peroxidation in organisms and may indirectly reflect the damage level of cells attacked by free radicals. Hoechst/Propidium Iodide (PI) double staining is applied to cell morphological observation: both PI and Hoechst33342 can bonde with cell nuclear Deoxyribonucleic Acid (DNA) (or Ribonucleic Acid (RNA)). However, PI fails to get through normal cellular membranes while Hoechst is a membrane-permeable fluorescent dye. Therefore, necrotic cells or cells whose cellular membranes are damaged during late apoptosis are stained red by PI while normal cells and cells in early apoptosis or mid-apoptosis are stained blue by Hoechst. However, nucleolus of apoptotic cell present a bright blue color due to concentration. Normal cells (blue), apoptotic cells (bright blue) and necrotic cells (red) can be distinguished according to different colors. However, the accompanying drawings in the specification are colorless, thus the colors are replaced by hollow rounds (blue), grey rounds (bright blue) and black rounds (red). […] Other detection indexes: […] […]"}, "[4]": {"tested_on": "rat brain cortical neurons induced by Aβ25-35", "experiment": "GSH-PX activity in culture medium of neurons damaged by Aβ25-35", "type": "cell-based", "excerpt": "Aβ25-35 and MTT, purchased from Sigma Company; T-AOC assay kit, MDA assay kit, GSH-PX assay kit and SOD assay kit, purchased from Nanjing Jiancheng Bioengineering Institute; and cell apoptosis fluorescent Hoechst33342/PI double staining reagent kit purchased from Nanjing KeyGEN Biotech Co., Ltd. […] Other detection indexes: […] Three experiments of different samples were repeated to detect each index of this experiment (except the Hoechst/PI double staining experiment and the experiment of cell morphological observation), and all results are obtained via the results of three experiments by using statistical analysis. Detect the influence of the reference substance A (A) and the coarse extracts thereof FX-01 powder (Fx-powder) and Fx-01 oil (Fx-oil) on the GSH-PX activity in the culture medium of the rat brain cortical neuron model induced by Aβ25-35, and the result is as shown in Table 3."}, "[5]": {"tested_on": "memory acquisition of mice", "experiment": "Step-down test, memory acquisition of mice", "type": "in vivo", "conditions": "0.42 mg/kg·bw by lavage for 30 days", "experimental": "(§1) 1.1 Material: pure fucoxanthin prepared by our company, and the recommended daily intake for a mouse is equal to the daily dose 4 mg of the human body, male Kuming mice, 6 to 8 weeks old, bodyweight ranging from 18 to 22 g.\n(§2) 1.2 dose and group: take the daily dose, i.e. 4 mg of fucoxanthin of the human body as a dose group, turn the dose into the daily dose of the mice, and set a blank control group.\n1.51 Step-down test: select 20 male mice with a bodyweight of 18 to 22 g, randomly divide the mice into a blank control group and a medication group, administer fucoxanthin to the medication group by lavage, conduct step-down training to the mice after administering the sample to the mice continuously for 30 days, put the animals in a reaction tank for adaption for 3 minutes, introduce a 36V alternating current, and the normal reaction of the animals was to jump back to the insulated platform quickly. Most of the animals might jump onto the copper grids again or jump onto the copper grids for multiple times, and jump back onto the platform after receiving electric shocks. After training once, the animals were placed on the platform in the reaction tank, record the number of electric shocks (number of errors) received by each mouse within 5 minutes as the learning performance, retest 24 hours later, and record the number of animals that received the electric shocks, the latency for the animals to step down the platform for the first time, and number of errors within 3 minutes.\n(§3) 1.6 Data processing: process the obtained data by utilizing an SPSS1010 statistic software package and employ analysis of variance and X^2 test in the statistic method. […]"}, "rat embryo neuron": {"tested_on": "rat embryo neuron", "conditions": "literature 2001-335480A published in Japan; cited from earlier work"}, "[6]": {"tested_on": "rat brain cortical neurons induced by Aβ25-35", "experiment": "Cell survival rate by MTT method in neurons damaged by Aβ25-35", "type": "cell-based", "conditions": "control = 100%", "from_the_text": "1) kill zero to four-day old neonatal rats, immerse the rats in 75% alcohol for 2 to 3 seconds, put the rats in a sterile culture dish, take their brains, and place the brains in a sterile culture dish containing cold D-Hanks liquid, remove meninges and blood vessels, and isolate the cerebral cortex.\n2) place the isolated tissues in a sterile culture dish containing a proper amount of 0.125% trypsin solution, cutting up the tissues into a size of about 0.5 mm*0.5 mm*0.5 mm, and place them for 5 minutes at room temperature.\n3) transfer the tissue blocks to a 15 ml centrifugal tube, add a proper amount of DMEM-F12 culture medium containing 10% bovine serum to terminate digestion, blow gently with a bend suction pipe to obtain a single cell suspension.\n4) filter the cells with a 400-mesh cell strainer.\n5) perform centrifugation at 1000 rpm for 5 minutes, discard the supernatant, add a D-Hanks liquid to wash the cells, perform centrifugation at 1000 rpm for 5 minutes and discard the supernatant.\n6) add a proper amount of DMEM-F12 culture medium containing 10% bovine serum, count the cells, according to a concentration of 1*10^5 cells/ml, inoculate cells in a 96-pore plate or a 24-pore plate, which applied with 10 μg/ml of polylysine as a basic layer, place the plate in a CO2 incubator and culture at 37 °C in a CO2 concentration of 5%.\n7) 24 hours later, replace the culture medium with a DMEM-F12 culture medium containing 5 mg/L cytarabine and 10% bovine serum; 24 hours later, replace the culture medium with a DMEM-F12 culture medium containing 2% B-27 and 10% bovine serum; replace the culture medium with a DMEM-F12 culture medium containing 2% B-27 and 10% bovine serum every 2 days subsequently to change the solution.\nA total of 8 experiment groups are set for cell survival rate detection, including a normal control group, a model group, 5 medicament groups of different concentrations (drug concentrations (the drug concentrations described herein refer to the dry weight of fucoxanthin): 0.39, 0.78, 1.56, 3.12 and 6.25 μg/ml) and a medicament control group (6.25 μg/ml). Other detection indexes: SOD, GSH-PX, T-AOC, MDA and cell morphological observation in which 5 experimental groups are set in total, including a normal control group, a model group and 3 medicament groups of different concentrations (drug concentrations: 0.39, 0.78 and 1.56 μg/ml).\nTake cells cultured for 7 days, administer corresponding concentrations of the drug to the medicament groups, add an equal amount of a corresponding solvent to the control group and the model group, incubate for 16 hours, treat groups besides the control group with 5 μM of Aβ25-35 (pre-aged for 7 days at 37□) for 24 hours, take the cell culture medium to detect the T-AOC, the SOD, the MDA and the GSH-PX subsequently, and measure the cell survival rate by MTT method or perform morphological observation with a Hoechst/PI double staining experiment.\nDetermination of the cell survival rate by MTT method: culture the cells in a 96-pore plate, administer the drug to protect the cells for 16 hours, after damaging the cells by Aβ25-35 for 24 hours, add 5 mg/ml of MTT to the culture medium, continue to culture for 4 hours, terminate the culture, remove the culture medium through careful suction, add 200 μl of dimethyl sulfoxide to each pore, measure the absorbance of each pore at Optical Density (OD) 490 nm with an enzyme-labeled instrument after the crystals are completely dissolved and calculate the cell survival rate by taking the control group as 100%."}, "[7]": {"tested_on": "memory acquisition of mice", "experiment": "Step-through test, memory acquisition of mice", "type": "in vivo", "conditions": "0.42 mg/kg·bw for 30 days", "experimental": "as §1, §2\n1.52 Step-through test: the selection of animals, the grouping in the test, the doses for the tested objects, the administration methods and the administration time are the same as those in the step-down test, and step-through training was conducted after administering the samples continuously for 30 days. During the experiment, make the mice face back to the entrance of a bright room and put the mice into the bright room, start a timer, the animals passed through the entrance, entered the […] and received electric shocks, stop the timer, take out the mice and record the time needed for each mouse to be put into the bright room and enter a dark room to receive the electric shocks, i.e. the latency, repeat the test 24 hours later at the same time, and record the latency for each mouse to enter the dark room, the number of errors within 5 minutes, and the number of animals that entered the dark room.\nas §3"}, "[8]": {"tested_on": "rat brain cortical neurons induced by Aβ25-35", "experiment": "T-AOC in culture medium of neurons damaged by Aβ25-35", "type": "cell-based", "excerpt": "Aβ25-35 and MTT, purchased from Sigma Company; T-AOC assay kit, MDA assay kit, GSH-PX assay kit and SOD assay kit, purchased from Nanjing Jiancheng Bioengineering Institute; and cell apoptosis fluorescent Hoechst33342/PI double staining reagent kit purchased from Nanjing KeyGEN Biotech Co., Ltd. […] Other detection indexes: […] Three experiments of different samples were repeated to detect each index of this experiment (except the Hoechst/PI double staining experiment and the experiment of cell morphological observation), and all results are obtained via the results of three experiments by using statistical analysis. The T-AOC can be measured to evaluate the antioxidant capacity of the total antioxidant substances in the system. […] The protective effect of the Fx-powder is improved with the increase of the drug concentrations. However, A and the Fx-oil are not dose-dependent although they can improve the T-AOC."}},
  "note": "Marks after values point to notes of the source that are not given here.",
  "data": [
    {"smiles": "CC(=O)O[C@H]1CC(C)(C)C(=C=C/C(C)=C/C=C/C(C)=C/C=C/C=C(C)/C=C/C=C(\\C)C(=O)C[C@@]23O[C@]2(C)C[C@@H](O)CC3(C)C)[C@](C)(O)C1", "note": "[A, fucoxanthin]", "values": [
      {"measurement": "SOD (U/ml)", "setting": "[1]; 0.39 μg/ml", "value": "15.38 ± 0.71", "unit": "U/ml"},
      {"measurement": "SOD (U/ml)", "setting": "[1]; 0.78 μg/ml", "value": "15.72 ± 0.87", "unit": "U/ml"},
      {"measurement": "SOD (U/ml)", "setting": "[1]; 1.56 μg/ml", "value": "15.77 ± 0.83", "unit": "U/ml"},
      {"measurement": "MDA", "setting": "[2]; 0.39 μg/ml", "value": "5.12 ± 1.17", "unit": "µmol/mL"},
      {"measurement": "MDA", "setting": "[2]; 0.78 μg/ml", "value": "14.62 ± 3.82", "unit": "µmol/mL"},
      {"measurement": "MDA", "setting": "[2]; 1.56 μg/ml", "value": "12.34 ± 1.58", "unit": "µmol/mL"},
      {"measurement": "Morphological detection: apoptotic and necrotic cells", "setting": "[3]; 0.39 μg/ml", "value": "slight decrease in the necrotic cells"},
      {"measurement": "Morphological detection: apoptotic and necrotic cells", "setting": "[3]; 0.78 μg/ml", "value": "The apoptotic cells and the necrotic cells decrease"},
      {"measurement": "Morphological detection: apoptotic and necrotic cells", "setting": "[3]; 1.56 μg/ml", "value": "The apoptotic cells and the necrotic cells decrease"},
      {"measurement": "GSH-PX (U/ml)", "setting": "[4]; 0.39 μg/ml", "value": "38.17 ± 6.84", "unit": "U/ml"},
      {"measurement": "GSH-PX (U/ml)", "setting": "[4]; 0.78 μg/ml", "value": "61.50 ± 51.62", "unit": "U/ml"},
      {"measurement": "GSH-PX (U/ml)", "setting": "[4]; 1.56 μg/ml", "value": "34.00 ± 5.29", "unit": "U/ml"},
      {"measurement": "Error response rate (%) Training", "setting": "[5]", "value": 100, "unit": "%"},
      {"measurement": "Error response rate (%) Test", "setting": "[5]; retest 24 h later", "value": 50, "unit": "%"},
      {"measurement": "Latency Test", "setting": "[5]; retest 24 h later", "value": "136.2 ± 25.6", "unit": "s"},
      {"measurement": "Number of errors Test", "setting": "[5]; retest 24 h later, within 3 minutes", "value": "0.3 ± 0.31"},
      {"measurement": "Number of errors Training", "setting": "[5]; within 5 minutes", "value": "1.1 ± 0.56"},
      {"measurement": "Effect on rat embryo neuron injuries caused by cerebral ischemia-reperfusion", "setting": "rat embryo neuron", "value": "can inhibit rat embryo neuron injuries caused by cerebral ischemia-reperfusion"},
      {"measurement": "Cell survival rate (%)", "setting": "[6]; 0.39 μg/ml, drug 16 h then 5 μM Aβ25-35 24 h", "value": "98.45 ± 15.89", "unit": "%"},
      {"measurement": "Cell survival rate (%)", "setting": "[6]; 0.78 μg/ml, drug 16 h then 5 μM Aβ25-35 24 h", "value": "92.36 ± 17.79", "unit": "%"},
      {"measurement": "Cell survival rate (%)", "setting": "[6]; 1.56 μg/ml, drug 16 h then 5 μM Aβ25-35 24 h", "value": "98.99 ± 9.52", "unit": "%"},
      {"measurement": "Cell survival rate (%)", "setting": "[6]; 3.12 μg/ml, drug 16 h then 5 μM Aβ25-35 24 h", "value": "100.98 ± 8.74", "unit": "%"},
      {"measurement": "Cell survival rate (%)", "setting": "[6]; 6.25 μg/ml, drug 16 h then 5 μM Aβ25-35 24 h", "value": "103.31 ± 11.93", "unit": "%"},
      {"measurement": "Cell survival rate (%)", "setting": "[6]; medicament control group (6.25 μg/ml)", "value": "104.47 ± 20.70", "unit": "%"},
      {"measurement": "Error response rate (%)", "setting": "[7]", "value": "50** %"},
      {"measurement": "Latency (seconds) Training", "setting": "[7]", "value": "40.2 ± 6.5", "unit": "s"},
      {"measurement": "Latency (seconds) Test", "setting": "[7]; test 24 h later", "value": "240.4 ± 43.2", "unit": "s"},
      {"measurement": "Number of errors Test", "setting": "[7]; within 5 minutes", "value": "0.4 ± 0.3"},
      {"measurement": "T-AOC (U/ml)", "setting": "[8]; 0.39 μg/ml", "value": "1.50 ± 0.54", "unit": "U/ml"},
      {"measurement": "T-AOC (U/ml)", "setting": "[8]; 0.78 μg/ml", "value": "1.26 ± 0.37", "unit": "U/ml"},
      {"measurement": "T-AOC (U/ml)", "setting": "[8]; 1.56 μg/ml", "value": "1.12 ± 0.13", "unit": "U/ml"}
    ]}
  ]
}
